Experimental data reported in US20260356854A1, “Prodrugs of Varenicline and Compounds Containing Vulnerable Amines” (Pfizer Inc., priority 2022, published 2026).
Where two headings read alike, the source gives them in different places.

Legend:
[1] = Weight loss on heating (solid-state characterization); format: physicochemical; details: up to 150 °C; crystalline anhydrous form
Procedure: (§1) Compound 1 is a crystalline anhydrous solid form as represented by its PXRD pattern (FIG. 1). […] Compound 1 has a melting onset of ~227 °C and is non-hygroscopic, i.e., less than 0.2% moisture uptake at 90% RH/25 °C.

[2] = Moisture uptake / hygroscopicity (solid-state characterization); format: physicochemical; details: 90% RH/25 °C; crystalline anhydrous form
Procedure: as §1

[3] = Study to assess the bioequivalence of Compound 1 and varenicline tartrate (oral plasma concentrations); format: in vivo, monkey (non-human primates); details: monkey, capsule, 0.04 mg eq/kg
Procedure: FIG. 3 is a graph of the mean monkey plasma concentrations of varenicline following an oral dose of 0.04 mg eq/kg of prodrug (Compound 1) and varenicline tartrate.
A prodrug of varenicline (Compound 1) prepared as described above in Example 1 was orally dosed in capsule form to non-human primates to assess bioequivalence to varenicline tartrate API (Chantix). FIG. 3 is a graph of the mean monkey plasma concentrations of varenicline following an oral dose of 0.04 mg eq/kg of prodrug (Compound 1) and 0.04 mg eq/kg of varenicline tartrate.

[4] = Nitrosamine formation under nitrosating conditions in solution (UPLC-MS); format: physicochemical; details: for 10 min. N—NO Level: area % by UV; for 2 h N—NO Level / 42 h N—NO Level: area % by UV (210 nm)
Procedure: A study was conducted to determine whether varenicline prodrug (Compound 1) forms nitrosamine under nitrosating conditions in solution as compared to varenicline. Regular UPLC-MS detection was utilized. Varenicline free base (0.1 mmol), varenicline tartrate salt (0.1 mmol), and Compound 1 (0.1 mmol) were added to separate vials. THF (2.2 ml) was added to each vial. NaNO2 (0.1 eq) and AcOH (0.1 eq) (added as a 0.1 wt % NaNO2 solution with equivalent molar of acetic acid was also added to each vial to provide a total volume of ~2.5 ml/vial.

[5] = tested on: chronic cigarette smokers; details: total dose of 1 mg per day or 2 mg per day; six weeks; initial evidence; cited from earlier work
[6] = tested on: chronic cigarette smokers; details: Study 2, cited from earlier work; for co-confirmed continuous abstinence during weeks 9 through 12: placebo 12%; for continuously abstinent from one week after TQD through the end of treatment: placebo 8%
[7] = tested on: chronic cigarette smokers; details: Study 3, patient-directed 0.5 mg QD to 1 mg BID, cited from earlier work
[8] = tested on: chronic cigarette smokers; details: Study 4, cited from earlier work
[9] = tested on: chronic cigarette smokers; details: Study 5, cited from earlier work
[10] = nitrosating conditions: NaNO2 0.1 eq, AcOH 0.1 eq, THF, 10 min
[11] = nitrosating conditions: NaNO2 0.1 eq, AcOH 0.1 eq, THF
[12] = varenicline 1 mg BID compared to bupropion SR or placebo

Cc1ncc2c(c1O)[C@H](N1C[C@H]3C[C@@H](C1)c1cc4nccnc4cc13)OC2 [Compound 1, (R)-6-methyl-1-((6R,10S)-6,7,9,10-tetrahydro-8H-6,10-methanoazepino[4,5-g]quinoxalin-8-yl)-1,3-dihydrofuro[3,4-c]pyridin-7-ol]
weight loss [1]: less than 0.1%
hygroscopicity (in words) [2]: non-hygroscopic
moisture uptake [2]: less than 0.2%
prodrug remaining in the systemic circulation ([3]; analyte prodrug): no prodrug remaining in the systemic circulation
bioequivalence (plasma concentration over time) of the varenicline released from the prodrug ([3]; analyte varenicline, vs varenicline tartrate 0.04 mg eq/kg): comparable to varenicline tartrate
nitrosamine formation under nitrosating conditions (in words) ([4]; as compared to varenicline tartrate): does not form nitrosamines
10 min. N—NO Level [4, 10]: Not detected
2 h N—NO Level [4, 11]: Not detected.
42 h N—NO Level [4, 11]: Not detected

Cl.c1cnc2cc3c(cc2n1)C1CNCC3C1 [Varenicline Free base, 5,8,14-triazatetracyclo [10.3.1.0^2,11.0^4,9]hexadeca-2(11),3,5,7,9-pentaene]
10 min. N—NO Level [4, 10]: Not detected
2 h N—NO Level [4, 11]: Not detected
42 h N—NO Level [4, 11]: Not detected

O=C(O)C(O)C(O)C(=O)O.c1cnc2cc3c(cc2n1)[C@@H]1CNC[C@H]3C1 [Varenicline tartrate]
10 min. N—NO Level (by MS) ([4]; nitrosating conditions: NaNO2 0.1 eq, AcOH 0.1 eq, THF, 10 min, MS detection): Detectable by MS
10 min. N—NO Level [4, 10]: Not detected by UV
2 h N—NO Level [4, 11]: 0.83 A %
42 h N—NO Level [4, 11]: 5.15 A %

Cl.c1cnc2cc3c(cc2n1)C1CNCC3C1 [varenicline, 5,8,14-triazatetracyclo[10.3.1.0^2,11.0^4,9]hexadeca-2(11),3,5,7,9-pentaene]
effectiveness as an aid to smoking cessation (in words) [5]: effective as an aid to smoking cessation
co-confirmed continuous abstinence during weeks 9 through 12 ([6]; 1 mg per day (0.5 mg BID)): Forty five
continuously abstinent from one week after TQD through the end of treatment ([6]; 1 mg per day): 31%
co-confirmed continuous abstinence during weeks 9 through 12 ([6]; 2 mg per day (1 mg BID)): 51%
continuously abstinent from one week after TQD through the end of treatment ([6]; 2 mg per day): 31%
continuously abstinent from one week after TQD through the end of treatment ([7]; placebo 9%): 29%
co-confirmed continuous abstinence during weeks 9 through 12 ([7]; placebo 12%): 40%
rate of co-confirmed abstinence during weeks 9 through 12, comparison in words [8, 12]: superior
continuously abstinent from one week after TQD through the end of treatment ([8]; varenicline 1 mg BID, placebo 12%): 29%
co-confirmed abstinence during weeks 9 through 12 ([8]; varenicline 1 mg BID, placebo 17%): 44%
rate of co-confirmed abstinence during weeks 9 through 12, comparison in words [9, 12]: superior
continuously abstinent from one week after TQD through the end of treatment ([9]; varenicline 1 mg BID, placebo 11%): 29%
co-confirmed abstinence during weeks 9 through 12 ([9]; varenicline 1 mg BID, placebo 18%): 44%
